Laboratory results as given in the NIST ThermoML archive (doi:10.1021/je7003929).

Settings: Liquid, Vibrating tube method

CCCCCC [hexane]
Settings | mass density [kg/m3]
313.12 K, 1019 kPa | 642.2
313.12 K, 2044 kPa | 643.5
313.12 K, 3023 kPa | 644.6
313.12 K, 4018 kPa | 645.8
313.12 K, 5016 kPa | 647
313.12 K, 6012 kPa | 648.1
313.12 K, 7016 kPa | 649.2
313.12 K, 8016 kPa | 650.3
313.12 K, 9020 kPa | 651.4
313.12 K, 10018 kPa | 652.5
313.12 K, 11020 kPa | 653.5
313.12 K, 12004 kPa | 654.6
313.12 K, 13007 kPa | 655.6
313.12 K, 14015 kPa | 656.6
313.12 K, 15006 kPa | 657.6
313.12 K, 16023 kPa | 658.6
313.12 K, 17015 kPa | 659.6
313.12 K, 18011 kPa | 660.5
313.12 K, 19009 kPa | 661.4
313.12 K, 20016 kPa | 662.4
313.12 K, 20995 kPa | 663.3
313.12 K, 22018 kPa | 664.2
313.12 K, 23018 kPa | 665.1
313.12 K, 24013 kPa | 666
313.12 K, 25002 kPa | 666.8
323.05 K, 1030 kPa | 633
323.05 K, 2010 kPa | 634.3
323.05 K, 3021 kPa | 635.6
323.05 K, 4018 kPa | 636.9
323.05 K, 5014 kPa | 638.1
323.05 K, 6007 kPa | 639.4
323.05 K, 7010 kPa | 640.6
323.05 K, 8012 kPa | 641.8
323.05 K, 9020 kPa | 643
323.05 K, 10008 kPa | 644.1
323.05 K, 11021 kPa | 645.2
323.05 K, 12011 kPa | 646.4
323.05 K, 13007 kPa | 647.4
323.05 K, 14007 kPa | 648.5
323.05 K, 15035 kPa | 649.6
323.05 K, 16011 kPa | 650.6
323.05 K, 17021 kPa | 651.6
323.05 K, 18020 kPa | 652.7
323.05 K, 19013 kPa | 653.7
323.05 K, 20001 kPa | 654.6
323.05 K, 21028 kPa | 655.6
323.05 K, 22004 kPa | 656.6
323.05 K, 23010 kPa | 657.5
323.05 K, 24021 kPa | 658.5
323.05 K, 25018 kPa | 659.4
332.85 K, 1020 kPa | 623.5
332.85 K, 2021 kPa | 625
332.85 K, 3022 kPa | 626.5
332.85 K, 4020 kPa | 627.8
332.85 K, 5011 kPa | 629.2
332.85 K, 6016 kPa | 630.6
332.85 K, 7012 kPa | 631.9
332.85 K, 8025 kPa | 633.3
332.85 K, 9012 kPa | 634.5
332.85 K, 10010 kPa | 635.7
332.85 K, 11012 kPa | 636.9
332.85 K, 12019 kPa | 638.1
332.85 K, 13007 kPa | 639.2
332.85 K, 14021 kPa | 640.4
332.85 K, 15014 kPa | 641.6
332.85 K, 16025 kPa | 642.8
332.85 K, 17011 kPa | 643.8
332.85 K, 18035 kPa | 644.9
332.85 K, 19014 kPa | 646
332.85 K, 20011 kPa | 647.1
332.85 K, 21015 kPa | 648.1
332.85 K, 22000 kPa | 649.1
332.85 K, 23012 kPa | 650.1
332.85 K, 24022 kPa | 651.2
332.85 K, 25030 kPa | 652.2
342.73 K, 1010 kPa | 613.9
342.73 K, 2010 kPa | 615.5
342.73 K, 3011 kPa | 617.1
342.73 K, 4010 kPa | 618.6
342.73 K, 5005 kPa | 620
342.73 K, 6031 kPa | 621.6
342.73 K, 7020 kPa | 623
342.73 K, 8009 kPa | 624.4
342.73 K, 9015 kPa | 625.7
342.73 K, 10012 kPa | 627
342.73 K, 11006 kPa | 628.4
342.73 K, 12014 kPa | 629.7
342.73 K, 13011 kPa | 630.9
342.73 K, 14014 kPa | 632.2
342.73 K, 15008 kPa | 633.4
342.73 K, 16006 kPa | 634.6
342.73 K, 17021 kPa | 635.7
342.73 K, 18016 kPa | 636.9
342.73 K, 19025 kPa | 638
342.73 K, 20037 kPa | 639.2
342.73 K, 21025 kPa | 640.3
342.73 K, 22016 kPa | 641.3
342.73 K, 23010 kPa | 642.5
342.73 K, 24023 kPa | 643.5
342.73 K, 25006 kPa | 644.5
352.56 K, 1017 kPa | 604
352.56 K, 2028 kPa | 605.8
352.56 K, 3030 kPa | 607.6
352.56 K, 4024 kPa | 609.2
352.56 K, 5022 kPa | 610.9
352.56 K, 6024 kPa | 612.5
352.56 K, 7027 kPa | 614
352.56 K, 8021 kPa | 615.5
352.56 K, 9022 kPa | 617
352.56 K, 10020 kPa | 618.4
352.56 K, 11023 kPa | 619.9
352.56 K, 12003 kPa | 621.2
352.56 K, 13021 kPa | 622.6
352.56 K, 14012 kPa | 623.9
352.56 K, 15007 kPa | 625.2
352.56 K, 16016 kPa | 626.5
352.56 K, 17012 kPa | 627.7
352.56 K, 18015 kPa | 629
352.56 K, 19003 kPa | 630.2
352.56 K, 20040 kPa | 631.4
352.56 K, 21005 kPa | 632.5
352.56 K, 22035 kPa | 633.8
352.56 K, 23002 kPa | 634.8
352.56 K, 24039 kPa | 636
352.56 K, 25000 kPa | 637.1
362.4 K, 1029 kPa | 593.8
362.4 K, 2020 kPa | 595.8
362.4 K, 3028 kPa | 597.6
362.4 K, 4029 kPa | 599.5
362.4 K, 5040 kPa | 601.3
362.4 K, 6026 kPa | 602.9
362.4 K, 7026 kPa | 604.7
362.4 K, 8004 kPa | 606.3
362.4 K, 9007 kPa | 607.9
362.4 K, 10009 kPa | 609.4
362.4 K, 11009 kPa | 610.9
362.4 K, 12010 kPa | 612.5
362.4 K, 13000 kPa | 614
362.4 K, 14028 kPa | 615.5
362.4 K, 15017 kPa | 616.8
362.4 K, 16014 kPa | 618.1
362.4 K, 17004 kPa | 619.5
362.4 K, 18002 kPa | 620.9
362.4 K, 18988 kPa | 622.1
362.4 K, 20027 kPa | 623.4
362.4 K, 21002 kPa | 624.7
362.4 K, 22018 kPa | 625.9
362.4 K, 23013 kPa | 627.1
362.4 K, 24001 kPa | 628.4
362.4 K, 25000 kPa | 629.5
